Values of other authors in patent US20090232888A1, “SUSTAINED DELIVERY OF ANTIBIOTICS” (ORIENT PHARMA, priority 2008, published 2009).

Tests used:
[1] = solution, 4° C., shelf-life based on 90% residual potency

## CN[C@H](CC(C)C)C(=O)N[C@H]1C(=O)N[C@@H](CC(N)=O)C(=O)N[C@H]2C(=O)N[C@H]3C(=O)N[C@H](C(=O)N[C@H](C(=O)O)c4cc(O)cc(O)c4-c4cc3ccc4O)[C@H](O)c3ccc(c(Cl)c3)Oc3cc2cc(c3O[C@@H]2O[C@H](CO)[C@@H](O)[C@H](O)[C@H]2O[C@H]2C[C@](C)(N)[C@H](O)[C@H](C)O2)Oc2ccc(cc2Cl)[C@H]1O [vancomycin]
[1]
  time vancomycin solutions were stable (shelf-life of 90% residual potency): at least 58 days
other
  oral bioavailability: negligible
